The assay addresses GLP1R (Homo sapiens, UniProt P43220). The experiment in a line: GLP1R cAMP assay (HTRF cAMP detection, agonist activity). Details: host or cells: Flp-In-293. The following applies: Flp-In-293-GLP1R cells, 30 min at 37° C., read-out: EC50 (nM) Assay 1. It counts as cell-based. The procedure:
GLP1R-mediated agonist activity was determined with a cell-based functional assay utilizing an HTRF (Homogeneous Time-Resolved Fluorescene) cAMP detection kit that measures CAMP levels in the cell. Reagents and equipment used in the assay are listed below, followed by the protocol.
• 1) Cell Line: Flp-In-293-GLP1R (constructed by Pharmaron Beijing Co., Ltd) • 2) Complete Medium: DMEM+10% FBS+1×Penicillin-Streptomycin+200 μg/mL HB • 3) Assay Buffer: 1×HBSS+20 mM HEPES+0.1% BSA+500 μM IBMX
• a) Seed Flpin-293-GLP1R cells at 20,000 cells/well into 384 well assay plate (6007680-50, PE) using complete medium. • b) Prepare 4×compound working solution with assay buffer. • c) Add 5 μL 4×compound working solution into cell plate, incubate 30 min at 37° C. • d) Dilute Eu-cAMP tracer (1/50) with lysis buffer and add 10 μl/well to assay plate. • e) Dilute Ulight-anti-cAMP (1/150) with lysis buffer and add 10 μl/well to assay plate. • f) Incubate 1 h at RT. • g) Read the plate at wavelengths of 665 nm and 615 nm on Envision 2105 plate reader.
• 3.1% Activity is calculated as follow:
% Activity=100−(Signalcmpd−SignalAve_PC)/(SignalAve_VC−SignalAve_PC)×100. • 3.2 Calculate EC50 and Plot effect-dose curve of cmpds:
Y=Bottom+(Top−Bottom)/(1+10^((Log EC50−X)*Hill Slope)) • X: log of agonist concentration; Y: % Activity.

GLP1R, sequence (P43220 24-463, species assumed): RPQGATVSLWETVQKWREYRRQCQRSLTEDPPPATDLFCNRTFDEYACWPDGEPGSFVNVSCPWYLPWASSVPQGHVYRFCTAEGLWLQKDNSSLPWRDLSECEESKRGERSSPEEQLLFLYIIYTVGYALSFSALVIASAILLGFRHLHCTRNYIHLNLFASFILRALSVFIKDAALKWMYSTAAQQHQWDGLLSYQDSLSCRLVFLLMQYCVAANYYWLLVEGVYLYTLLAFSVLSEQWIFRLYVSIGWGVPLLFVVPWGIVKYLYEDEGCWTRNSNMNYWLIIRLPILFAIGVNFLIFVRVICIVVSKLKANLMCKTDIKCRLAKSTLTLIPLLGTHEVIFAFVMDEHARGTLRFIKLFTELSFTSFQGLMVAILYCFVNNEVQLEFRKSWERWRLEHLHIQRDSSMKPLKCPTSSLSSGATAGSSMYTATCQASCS

Regarding `O=C(O)c1ccc2nc(CN3CC4CN(c5cccc(OCc6ccc(Cl)cc6F)n5)CC4C3)n(C[C@@H]3CCO3)c2c1` (stereo partly drawn) [Compound 2-27, 2-((5-(6-((4-chloro-2-fluorobenzyl)oxy)pyridin-2-yl)hexahydropyrrolo[3,4-c]pyrrol-2 (1H)-yl)methyl)-1-(((S)-oxetan-2-yl)methyl)-1H-benzo[d]imidazole-6-carboxylic acid], the EC50 (commonly the concentration that produces a half-maximal response) was > 4 nM.
Next, `N#Cc1ccc(COc2ccnc(C34CCN(Cc5nc6ccc(C(=O)O)cc6n5C[C@@H]5CCO5)CC3C4)n2)c(F)c1` (single isomer, unassigned) [Compound 1-11-B]: 0.017 nM.
Regarding `N#Cc1ccc(COc2cccc(N3CC4CN(Cc5nc6ccc(C(=O)O)cc6n5C[C@@H]5CCO5)CC4C3)n2)cc1` (stereo partly drawn) [Compound 2-22, 2-((5-(6-((4-cyanobenzyl)oxy)pyridin-2-yl)hexahydropyrrolo[3,4-c]pyrrol-2 (1H)-yl)methyl)-1-(((S)-oxetan-2-yl)methyl)-1H-benzo[d]imidazole-6-carboxylic acid], the EC50 came to 2 nM.
Next, `N#Cc1ccc(COc2cccc(N3C4CC3CN(Cc3nc5ccc(C(=O)O)cc5n3C[C@@H]3CCO3)C4)n2)c(F)c1` [Compound 2-2, 2-((6-(6-((4-cyano-2-fluorobenzyl)oxy)pyridin-2-yl)-3,6-diazabicyclo[3.1.1]heptan-3-yl)methyl)-1-(((S)-oxetan-2-yl)methyl)-1H-benzo[d]imidazole-6-carboxylic acid]: > 4 nM.
For “2-((3-(6-((4-cyano-2-fluorobenzyl)oxy)pyridin-2-yl)-3,8-diazabicyclo[3.2.1]octan-8-yl)methyl)-1-((oxetan-2-yl)methyl)-1H-benzo[d]imidazole-6-carboxylic acid [Compound 2-30]” the value was 0.375 nM.
Next, `O=C(O)c1ccc2nc(CN3C4CCC3CN(c3cccc(OCc5ccncc5F)n3)C4)n(C[C@@H]3CCO3)c2c1` [Compound 2-13, 2-[(3-{6-[(3-fluoropyridin-4-yl)methoxy]pyridin-2-yl}-3,8-diazabicyclo[3.2.1]octan-8-yl)methyl]-3-[(2S)-oxetan-2-ylmethyl]-1,3-benzodiazole-5-carboxylic acid]: > 4 nM.
As to `N#Cc1ccc(COc2cccc(N3C4CCC3CN(Cc3nc5ccc(C(=O)O)cc5n3Cc3ncco3)C4)n2)c(F)c1` [Compound 2-31, 2-[(8-{6-[(4-cyano-2-fluorophenyl)methoxy]pyridin-2-yl}-3,8-diazabicyclo[3.2.1]octan-3-yl)methyl]-3-(1,3-oxazol-2-ylmethyl)-1,3-benzodiazole-5-carboxylic acid], the EC50 is 1.5 nM.
For the compound `N#Cc1ccc(COc2cccc(N3CC4CN(Cc5nc6ccc(C(=O)O)cc6n5Cc5cocn5)CC4C3)n2)c(F)c1` (centres unmarked) [Compound 2-25, 2-[(5-{6-[(4-cyano-2-fluorophenyl)methoxy]pyridin-2-yl}-hexahydropyrrolo[3,4-c]pyrrol-2-yl)methyl]-3-(1,3-oxazol-4-ylmethyl)-1,3-benzodiazole-5-carboxylic acid], the EC50 worked out at 1.7 nM.
Next, `CS(=O)(=O)c1ccc(COc2cccc(N3CC4CCC(C3)N4Cc3nc4ccc(C(=O)O)cc4n3C[C@@H]3CCO3)n2)cc1` [Compound 2-14, 2-((−3-(6-((4-(methylsulfonyl)benzyl)oxy)pyridin-2-yl)-3,8-diazabicyclo[3.2.1]octan-8-yl)methyl)-1-(((S)-oxetan-2-yl)methyl)-1H-benzo[d]imidazole-6-carboxylic acid]: > 4 nM; `N#Cc1ccc(COc2cccc(C34CCN(Cc5nc6ccc(C(=O)O)cc6n5C[C@@H]5CCO5)CC3C4)c2)c(F)c1` (single isomer, unassigned) [Compound 1-9-B]: 1.05 nM.
Next, `N#Cc1ccc(COc2cccc(N3C4CCC3CN(Cc3nc5ccc(C(=O)O)cc5n3CC3CCOC3)C4)n2)c(F)c1` (centres unmarked) [Compound 2-33, 2-[(8-{6-[(4-cyano-2-fluorophenyl)methoxy]pyridin-2-yl}-3,8-diazabicyclo[3.2.1]octan-3-yl)methyl]-3-(oxolan-3-ylmethyl)-1,3-benzodiazole-5-carboxylic acid]: > 4 nM.
`N#Cc1ccc(COc2cccc(N3CC4CN(Cc5nc6ccc(C(=O)O)cc6n5CC5CCO5)CC4C3)n2)c(F)c1` (centres unmarked) [Compound 2-21, 2-[(5-{6-[(4-cyano-2-fluorophenyl)methoxy]pyridin-2-yl}-hexahydropyrrolo[3,4-c]pyrrol-2-yl)methyl]-3-(oxetan-2-ylmethyl)-1,3-benzodiazole-5-carboxylic acid]: the EC50 was > 4 nM.
For `N#Cc1ccc(COc2cccc(N3CC4CN(Cc5nc6ccc(C(=O)O)cc6n5CC5CCOC5)CC4C3)n2)c(F)c1` (centres unmarked) [Compound 2-24, 2-[(5-{6-[(4-cyano-2-fluorophenyl)methoxy]pyridin-2-yl}-hexahydropyrrolo[3,4-c]pyrrol-2-yl)methyl]-3-(oxolan-3-ylmethyl)-1,3-benzodiazole-5-carboxylic acid] the value was 3.05 nM.
For `N#Cc1ccc(COc2ccnc(C34CCN(Cc5nc6ccc(C(=O)O)cc6n5C[C@@H]5CCO5)CC3C4)n2)c(F)c1` (single isomer, unassigned) [Compound 1-11-A] the value was 0.995 nM; for `N#Cc1ccc(COc2cccc(N3C4CCC3CN(Cc3nc5ccc(C(=O)O)cc5n3C[C@@H]3CCCO3)C4)n2)c(F)c1` [Compound 2-32, 2-((−8-(6-((4-cyano-2-fluorobenzyl)oxy)pyridin-2-yl)-3,8-diazabicyclo[3.2.1]octan-3-yl)methyl)-1-(((S)-tetrahydrofuran-2-yl)methyl)-1H-benzo[d]imidazole-6-carboxylic acid], 3.25 nM; for `O=C(O)c1ccc2nc(CN3C4CCC3CN(c3cccc(OCc5ccncc5)n3)C4)n(C[C@@H]3CCO3)c2c1` [Compound 2-5, 3-[(2S)-oxetan-2-ylmethyl]-2-({3-[6-(pyridin-4-ylmethoxy)pyridin-2-yl]-3,8-diazabicyclo[3.2.1]octan-8-yl}methyl)-1,3-benzodiazole-5-carboxylic acid], > 4 nM.
Next, `N#Cc1ccc(COc2ccnc(C34CCN(Cc5nc6ccc(C(=O)O)cc6n5C[C@@H]5CCO5)CC3C4)n2)c(F)c1` (stereo partly drawn) [Compound 1-11, 2-((6-(4-((4-cyano-2-fluorobenzyl)oxy)pyrimidin-2-yl)-3-azabicyclo[4.1.0]heptan-3-yl)methyl)-1-(((S)-oxetan-2-yl)methyl)-1H-benzo[d]imidazole-6-carboxylic acid]: 0.079 nM.
Regarding `O=C(O)c1ccc2nc(CN3C4CCC3CN(c3cccnc3OCc3ccc(Cl)cc3F)C4)n(C[C@@H]3CCO3)c2c1` [Compound 2-17, 2-[(3-{2-[(4-chloro-2-fluorophenyl)methoxy]pyridin-3-yl}-3,8-diazabicyclo[3.2.1]octan-8-yl)methyl]-3-[(2S)-oxetan-2-ylmethyl]-1,3-benzodiazole-5-carboxylic acid], the EC50 is > 4 nM.
For `N#Cc1ccc(COc2cccc(N3C4CCC3CN(Cc3nc5ccc(C(=O)O)cc5n3C[C@@H]3CCO3)C4)n2)cc1` [Compound 2-38, 2-((8-(6-((4-cyanobenzyl)oxy)pyridin-2-yl)-3,8-diazabicyclo[3.2.1]octan-3-yl)methyl)-1-(((S)-oxetan-2-yl)methyl)-1H-benzo[d]imidazole-6-carboxylic acid], the EC50 turned out to be 0.458 nM.
For `N#Cc1ccc(COc2cccc(N3CC4CCC(C3)N4Cc3nc4ccc(C(=O)O)cc4n3Cc3ncco3)n2)c(F)c1` [Compound 2-12, 2-((−3-(6-((4-cyano-2-fluorobenzyl)oxy)pyridin-2-yl)-3,8-diazabicyclo[3.2.1]octan-8-yl)methyl)-1-(oxazol-2-ylmethyl)-1H-benzo[d]imidazole-6-carboxylic acid] the value was > 4 nM.
Next, `N#Cc1ccc(COc2cccc(C34CCN(Cc5nc6ccc(C(=O)O)cc6n5C[C@@H]5CCO5)CC3C4)n2)cc1F` (stereo partly drawn) [Compound 1-7, 2-((6-(6-((4-cyano-3-fluorobenzyl)oxy)pyridin-2-yl)-3-azabicyclo[4.1.0]heptan-3-yl)methyl)-1-(((S)-oxetan-2-yl)methyl)-1H-benzo[d]imidazole-6-carboxylic acid]: 0.175 nM.
For `CS(=O)(=O)NC(=O)c1ccc2nc(CN3CC4CCC(C3)N4c3cccc(OCc4ccc(C#N)cc4F)n3)n(C[C@@H]3CCO3)c2c1` [Compound 2-42, 2-((−8-(6-((4-cyano-2-fluorobenzyl)oxy)pyridin-2-yl)-3,8-diazabicyclo[3.2.1]octan-3-yl)methyl)-N-(methylsulfonyl)-1-(((S)-oxetan-2-yl)methyl)-1H-benzo[d]imidazole-6-carboxamide] the value was > 4 nM.
As to `N#Cc1ccc(COc2cccc(N3CC4CN(Cc5nc6ccc(C(=O)O)cc6n5C[C@@H]5CCCO5)CC4C3)n2)c(F)c1` (stereo partly drawn) [Compound 2-23, 2-[(5-{6-[(4-cyano-2-fluorophenyl)methoxy]pyridin-2-yl}-hexahydropyrrolo[3,4-c]pyrrol-2-yl)methyl]-3-[(2S)-oxolan-2-ylmethyl]-1,3-benzodiazole-5-carboxylic acid], the EC50 is > 4 nM.

Values taken from US20240382471A1, “GLUCAGON-LIKE PEPTIDE-1 RECEPTOR MODULATORS AND USES THEREOF” (HEPAGENE THERAPEUTICS (HK) LIMITED, priority 2021, published 2024).
